# “Also recorded” adds a separate entry of the source.
# Legend:
# Schwann cells = experiment: Intracellular NAD+ in Schwann cells (NAD-glo assay); format: cell-based, mouse; details: 250 μM 3AP, 72 hours, compared to DMSO control, listed as 3AP
# Description: (§1) Freshly plated mouse Schwann cells were obtained from P2 sciatic and brachial nerves. Nerves were digested with trypsin and collagenase, centrifuged and plated on laminin/Poly-L-lysine coated glass coverslips in defined medium as previously described (Arthur-Farraj et al., 2011).
# […] Protein was extracted using Pierce™ IP Lysis Buffer supplemented with cOmplete™ Mini EDTA-free Protease Inhibitor Cocktail, and a BCA assay carried out to determine protein concentration. All samples were diluted to 0.5 μg/μL. The NAD-glo assay was performed according to manufacturer's instruction of the NAD^+/NADH-Glo™ assay by Promega (G9071). In short, 25 μL of sample were incubated with 12.5 μL 0.4M HCl at 60° C. for 15 min, before 12.5 μL 0.5M Tris base were added. 10 μL NAD^+ standards or sample were then mixed with 10 μL NAD-glo master mix (1 ml luciferin detection reagent, 5 μl reductase, 5 μl reductase substrate, 5 μl NAD^+ cycling enzyme, 25 μl NAD^+ cycling substrate) and incubated at RT for 40 min. Luminescence was read using a GloMax® Explorer microplate reader and NAD^+ concentrations determined relative to a NAD^+ standard curve.
# [1] = test system: freshly plated P2 mouse Schwann cells; experiment: Cell death in freshly plated P2 mouse Schwann cells (propidium iodide, DAPI, SOX10); format: cell-based; details: 250 μM 3-AP for 72 hours vs water
# Description: as §1
# Sciatic and optic nerves were dissected from Wt and Sarm1 KO mice and directly embedded in O.C.T. compound, without fixing, and stored at −80° C. until ready for cryosectioning. Cryosections at 5 μm thick were collected onto SuperFrost plus slides. These slides were post-fixed in 4% paraformaldehyde (PFA) at room temperature for 10 mins followed by three washes of 5 mins each with 1×PBS. The slides were then immersed in 100% methanol at −20° C. for 10 mins, followed by three washes of 5 mins each with 1×PBS. The slides were then blocked in 5% horse serum (HS)/0.2% Triton x-100/PBS for 30 mins at room temperature. Primary antibodies were diluted in blocking solution and slides were incubated overnight at 4° C. The following day, the slides were washed once for 5 mins with 1×PBS, twice for 5 mins with 0.1% tween/PBS and finally once again for 5 mins with 1×PBS before adding secondary antibodies. The corresponding secondary antibodies were diluted at 1:500 along with DAPI at 1:2000 for 2 hrs at room temperature and kept in the dark. […]
# SARM1 [2] = biological target: T1, SARM1 (Homo sapiens, UniProt Q6SZW1); details: cited from earlier work; for SARM1 activation in in vitro assays: Zhao et al., 2019; for SARM1 activation on binding in the allosteric site (ARM domain): Figley et al.
# T1 sequence (Q6SZW1 28-724): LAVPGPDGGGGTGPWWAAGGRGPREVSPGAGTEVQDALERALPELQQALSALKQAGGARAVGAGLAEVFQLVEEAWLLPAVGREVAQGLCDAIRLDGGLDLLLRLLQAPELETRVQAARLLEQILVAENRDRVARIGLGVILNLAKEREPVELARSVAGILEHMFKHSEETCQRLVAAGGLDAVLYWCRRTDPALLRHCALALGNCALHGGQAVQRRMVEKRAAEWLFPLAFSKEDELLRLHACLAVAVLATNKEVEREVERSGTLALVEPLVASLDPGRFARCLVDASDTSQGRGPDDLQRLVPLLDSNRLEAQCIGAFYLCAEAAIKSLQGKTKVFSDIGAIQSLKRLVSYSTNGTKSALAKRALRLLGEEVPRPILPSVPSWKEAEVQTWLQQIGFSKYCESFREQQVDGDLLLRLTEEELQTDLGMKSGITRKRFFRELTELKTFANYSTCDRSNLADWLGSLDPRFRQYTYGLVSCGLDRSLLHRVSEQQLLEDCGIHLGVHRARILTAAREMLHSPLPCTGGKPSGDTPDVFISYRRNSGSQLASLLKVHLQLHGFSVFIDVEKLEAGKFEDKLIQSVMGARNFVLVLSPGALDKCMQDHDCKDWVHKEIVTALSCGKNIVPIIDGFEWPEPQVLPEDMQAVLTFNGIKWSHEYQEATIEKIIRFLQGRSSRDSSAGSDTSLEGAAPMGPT
# [3] = test system: expanded mouse Schwann cells; experiment: Cell death in expanded mouse Schwann cells passaged three times (phase contrast, propidium iodide); format: cell-based; details: 250 μM 3-AP for 72 hours vs water; Schwann cells passaged three times in proliferative medium
# Description: Mouse SCs were passaged on PLL/laminin coated dishes in the presence of low serum (0.5% horse serum), 10 ng/ml Bneuregulin1 (BNRG1), and a low concentration cyclic adenosine monophosphate (CAMP) elevating signal, such as 2 μM forskolin or 100 μM dibutryl cAMP (Arthur-Farraj et al., 2011). Full protocol is described in (Mutschler et al., 2023).
# neuronal cultures = details: Loreto et al., 2021, Wu et al.; cited from earlier work
# SARM1 [4] = biological target: T1, SARM1; details: Zhao et al., 2019; cited from earlier work
compound,measurement,setting,value
"CC(=O)c1cccnc1 [3-AP, 3-acetylpyridine]",Intracellular NAD+ levels,Schwann cells,do not change
same,cell death judged by propidium iodide (P.I) and DAPI nuclear staining and SOX10 immunocytochemistry,[1],completely insensitive; also recorded: no cell death
same,SARM1 activity on interaction with active site (TIR domain) for base exchange reaction,"SARM1 [2]; Loreto et al., 2021, Angeletti et al., 2022, Wu et al.",increase in SARM1 activity
same,cell death by propidium iodide (P.I.) staining and phase contrast,[3],susceptible to cellular dysfunction and death; also recorded: substantial increase in P.I. staining
same,effect of high dose on neuronal cultures,neuronal cultures,axonal degeneration and cell death within hours
"NC(=O)c1ccc[n+]([C@@H]2O[C@H](COP(=O)(O)O)C(O)C2F)c1 (some centres unmarked) [CZ-17, ara-F-NMN]",SARM1 activation in in vitro assays,SARM1 [2],can activate SARM1
"NC(=O)c1ccc[n+]([C@@H]2O[C@H](COP(=O)(O)O)C(O)C2O)c1 (some centres unmarked) [NMN, Nicotinamide Mononucleotide]",SARM1 activation on binding in the allosteric site (ARM domain),"SARM1 [2]; Loreto et al., 2021",potently activates it
NC(=O)c1ccc[n+]([C@@H]2O[C@H](COP(O)(O)=S)C(O)C2O)c1 (some centres unmarked) [S-NMN],SARM1 activation in in vitro assays,SARM1 [2],can activate SARM1
"O=C(NCc1ccc[n+](C2OC(COP(=O)([O-])O)C(O)C2O)c1)Nc1ccc([N+](=O)[O-])cc1 (centres unmarked) [VMN, Vacor Mononucleotide]",SARM1 activation on binding in the allosteric site (ARM domain),"SARM1 [2]; Loreto et al., 2021",potently activates SARM1
sulfo-ara-F-NMN [CZ-48],SARM1 activation in cells,SARM1 [4],can activate SARM1
same,SARM1 activation in in vitro assays,SARM1 [2],can activate SARM1

# Source: patent US20260166017A1, “SARM1 INHIBITORS FOR USE IN THERAPY AND COSMETICS” (priority 2022, published 2026)
